# Patent US12410160B2 (Gilead Sciences, Inc., priority 2021, dated 2025)
# Columns and labels:
# [1] = target: KHK-C expressed in NRK-52E cells (Homo sapiens (Human), UniProt P50053); assay: KHK-C Cell-based Assay (EC50), NRK CTG, fructose-mediated ATP-depletion
# human KHK-A = human KHK-A (Homo sapiens (Human), UniProt P50053); assay: KHK Biochemical Assay (IC50), ADP-Glo, KHK-A; conditions: average of at least two separate assays
# Summary of the method: (§1)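 ADP-Glo luminescence measured ADP made over a 4 h room-temperature reaction of ATP plus fructose, started after 30 min compound–enzyme pre-incubation. Buffer: 50 mM Hepes pH 7.4, 140 mM KCl, 5 mM MgCl2, 0.01% Triton-X. Enzyme was His-tagged, BL21 (DE3)-expressed, Ni-NTA-purified; compounds in 1:3 DMSO dilution series.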
# human KHK-C = human KHK-C (Homo sapiens (Human), UniProt P50053); assay: KHK Biochemical Assay (IC50), ADP-Glo, KHK-C; conditions: average of at least two separate assays
# human KHK-C, sequence (P50053 whole entry): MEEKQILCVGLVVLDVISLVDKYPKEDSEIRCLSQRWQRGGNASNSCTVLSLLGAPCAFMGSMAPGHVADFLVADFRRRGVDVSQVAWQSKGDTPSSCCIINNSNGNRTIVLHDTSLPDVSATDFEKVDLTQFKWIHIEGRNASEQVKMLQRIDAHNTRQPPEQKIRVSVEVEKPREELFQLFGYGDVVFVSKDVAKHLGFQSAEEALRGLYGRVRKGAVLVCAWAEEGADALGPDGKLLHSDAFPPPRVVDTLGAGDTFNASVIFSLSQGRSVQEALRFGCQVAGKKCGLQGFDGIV
# Summary of the method: as §1
# human KHK-A, sequence (P50053 other isoform, or with tags, fused parts or gaps): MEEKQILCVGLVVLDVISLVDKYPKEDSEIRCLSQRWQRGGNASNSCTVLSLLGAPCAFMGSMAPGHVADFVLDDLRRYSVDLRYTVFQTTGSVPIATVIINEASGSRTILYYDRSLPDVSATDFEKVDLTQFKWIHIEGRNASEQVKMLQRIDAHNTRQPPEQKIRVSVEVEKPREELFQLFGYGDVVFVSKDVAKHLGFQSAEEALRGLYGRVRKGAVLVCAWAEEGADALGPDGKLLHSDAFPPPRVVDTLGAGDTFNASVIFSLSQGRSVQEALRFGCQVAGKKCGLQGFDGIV
# KHK-C expressed in NRK-52E cells, sequence (P50053 whole entry): as the sequence (P50053 whole entry) above
EC50 [1] [µM],IC50 (human KHK-A; ADP-Glo) [µM],IC50 (human KHK-C; ADP-Glo) [µM],IC50 (human KHK-A) [µM],IC50 (human KHK-C) [µM],SMILES
0.0754,0.054,0.0865,–,–,"C[C@H]1CCN1c1nc2c(c(-c3ccc(CN4CCC4)cc3)n1)CCC2 [Example 366, 4-[4-(azetidin-1-ylmethyl)phenyl]-2-[(2S)-2-methylazetidin-1-yl]-6,7-dihydro-5H-cyclopenta[d]pyrimidine]"
0.117,0.0763,0.0817,–,–,"C[C@H]1CCN1c1nc2c(c(-c3ccc(CO)c(F)c3)n1)CCC2 [Example 370, [2-fluoro-4-[2-[(2S)-2-methylazetidin-1-yl]-6,7-dihydro-5H-cyclopenta[d]pyrimidin-4-yl]phenyl]methanol]"
0.0735,0.0478,0.0404,–,–,"C[C@H]1CCN1c1nc2c(c(-c3ccc(CO)cc3)n1)CCC2 [Example 374, [4-[2-[(2S)-2-methylazetidin-1-yl]-6,7-dihydro-5H-cyclopenta[d]pyrimidin-4-yl]phenyl]methanol]"
0.084,0.0303,0.0182,–,–,"C[C@H]1CCN1c1nc2c(c(-c3ccc(CO)s3)n1)CCC2 [Example 375, [5-[2-[(2S)-2-methylazetidin-1-yl]-6,7-dihydro-5H-cyclopenta[d]pyrimidin-4-yl]-2-thienyl]methanol]"
0.0373,0.0523,0.0279,–,–,"C[C@H]1CCN1c1nc2c(c(-c3ccc(C(C)(C)O)s3)n1)CCC2 [Example 376, 2-[5-[2-[(2S)-2-methylazetidin-1-yl]-6,7-dihydro-5H-cyclopenta[d]pyrimidin-4-yl]-2-thienyl]propan-2-ol]"
0.0929,0.0269,0.0211,–,–,"C[C@H]1[C@H](O)CN1c1nc2c(c(-c3ccc(CNS(C)(=O)=O)s3)n1)CCC2 [Example 377, N-[[5-[2-[(2S,3R)-3-hydroxy-2-methyl-azetidin-1-yl]-6,7-dihydro-5H-cyclopenta[d]pyrimidin-4-yl]-2-thienyl]methyl]methanesulfonamide]"
0.0197,0.0029,0.0147,–,–,"C[C@H]1CCN1c1nc2c(c(-c3cc4c(=O)[nH]ccc4s3)n1)CCC2 [Example 384, 2-[2-[(2S)-2-methylazetidin-1-yl]-6,7-dihydro-5H-cyclopenta[d]pyrimidin-4-yl]-5H-thieno[3,2-c]pyridin-4-one]"
0.0196,0.0056,0.0099,–,–,"Cc1nc2cc(-c3nc(N4CC[C@@H]4C)nc4c3CCC4)ccc2c(=O)[nH]1 [Example 387, 2-methyl-7-[2-[(2S)-2-methylazetidin-1-yl]-6,7-dihydro-5H-cyclopenta[d]pyrimidin-4-yl]-3H-quinazolin-4-one]"
0.403,0.0877,0.0813,–,–,"C[C@H]1[C@H](O)CN1c1nc2c(c(-c3ccc4cnc(O)cc4c3)n1)CCC2 [Example 388, 6-[2-[(2S,3R)-3-hydroxy-2-methyl-azetidin-1-yl]-6,7-dihydro-5H-cyclopenta[d]pyrimidin-4-yl]isoquinolin-3-ol]"
3.33,4.22,2.48,–,–,"C[C@H]1CCN1c1nc2c(c(-c3nc4cc(F)ccc4n3C)n1)CCC2 [Example 390, 5-fluoro-1-methyl-2-[2-[(2S)-2-methylazetidin-1-yl]-6,7-dihydro-5H-cyclopenta[d]pyrimidin-4-yl]benzimidazole]"
1.81,2.19,0.915,–,–,"C[C@H]1CCN1c1nc2c(c(-c3nc4ccccc4n3C)n1)CCC2 [Example 391, 1-methyl-2-[2-[(2S)-2-methylazetidin-1-yl]-6,7-dihydro-5H-cyclopenta[d]pyrimidin-4-yl]benzimidazole]"
2.51,–,–,0.13,0.08,"C[C@H]1CCN1c1nc(-c2ccc(C(N)=O)cc2)c2[nH]ncc2n1 [Example 396, (S)-4-(5-(2-methylazetidin-1-yl)-1H-pyrazolo[4,3-d]pyrimidin-7-yl)benzamide]"
> 5,–,–,0.397,0.138,"C[C@H]1CCN1c1nc2c(c(-c3ccc4c(c3)[C@]3(C[C@H]3c3nc[nH]n3)C(=O)N4)n1)CCC2 [Example 414, (1R,2R)-5′-(2-((S)-2-methylazetidin-1-yl)-6,7-dihydro-5H-cyclopenta[d]pyrimidin-4-yl)-2-(1H-1,2,4-triazol-3-yl)spiro[cyclopropane-1,3′-indolin]-2′-one]"
0.239,–,–,0.0661,0.0814,"C[C@H]1CCN1c1nc2c(c(-c3cc(C(N)=O)c4ccccc4c3)n1)CCC2 [Example 423, (S)-3-(2-(2-methylazetidin-1-yl)-6,7-dihydro-5H-cyclopenta[d]pyrimidin-4-yl)-1-naphthamide]"
3.51,–,–,0.169,0.137,"C[C@H]1CCN1c1nc2c(c(-c3ccc4c(c3)C(=O)NC(=O)C4)n1)CCC2 [Example 424, (S)-7-(2-(2-methylazetidin-1-yl)-6,7-dihydro-5H-cyclopenta[d]pyrimidin-4-yl)isoquinoline-1,3(2H,4H)-dione]"
0.122,–,–,0.0217,0.0314,"C[C@H]1CCN1c1nc2c(c(-c3ccc4[nH]c(=O)[nH]c(=O)c4c3)n1)CCC2 [Example 425, 6-[2-[(2S)-2-methylazetidin-1-yl]-6,7-dihydro-5H-cyclopenta[d]pyrimidin-4-yl]-1H-quinazoline-2,4-dione]"
0.0928,–,–,0.0179,0.0401,"C[C@H]1CCN1c1nc2c(c(-c3ccc4c(=O)[nH]c(=O)[nH]c4c3)n1)CCC2 [Example 426, 7-[2-[(2S)-2-methylazetidin-1-yl]-6,7-dihydro-5H-cyclopenta[d]pyrimidin-4-yl]-1H-quinazoline-2,4-dione]"
1.73,–,–,0.0486,0.0416,"C[C@H]1CCN1c1nc2c(c(-c3ccc4c(=O)[nH][nH]c(=O)c4c3)n1)CCC2 [Example 429, 6-[2-[(2S)-2-methylazetidin-1-yl]-6,7-dihydro-5H-cyclopenta[d]pyrimidin-4-yl]-2,3-dihydrophthalazine-1,4-dione]"
3.22,–,–,3.16,2.12,"NC(=O)c1ccc(-c2nc(N3CCC34CCC4)nc3c2CCC3)cc1 [Example 430, 4-[2-(1-azaspiro[3.3]heptan-1-yl)-6,7-dihydro-5H-cyclopenta[d]pyrimidin-4-yl]benzamide]"
0.711,–,–,0.808,0.513,"NC(=O)c1ccc(-c2nc(N3CC(O)[C@@H]3Cc3ccccc3)nc3c2CCC3)cc1 (stereo partly drawn) [Example 431, 4-[2-[(2S)-2-benzyl-3-hydroxy-azetidin-1-yl]-6,7-dihydro-5H-cyclopenta[d]pyrimidin-4-yl]benzamide]"
3.31,–,–,2.93,1.62,"NC(=O)c1ccc(-c2nc(N3CCC34CCOC4)nc3c2CCC3)cc1 (stereo not drawn) [Example 434, 4-[2-(7-oxa-1-azaspiro[3.4]octan-1-yl)-6,7-dihydro-5H-cyclopenta[d]pyrimidin-4-yl]benzamide]"
0.123,–,–,0.0154,0.0131,"C[C@H]1CCN1c1nc2c(c(-c3cccc(C4CC(C(=O)O)C4)c3)n1)CCC2 (stereo partly drawn) [Example 439, 3-[3-[2-[(2S)-2-methylazetidin-1-yl]-6,7-dihydro-5H-cyclopenta[d]pyrimidin-4-yl]phenyl]cyclobutanecarboxylic acid]"
1.04,–,–,1.01,0.776,"C[C@H]1CCN1c1nc2c(c(-c3ccnc(OC(F)F)c3)n1)CCC2 [Example 453, 4-[2-(difluoromethoxy)-4-pyridyl]-2-[(2S)-2-methylazetidin-1-yl]-6,7-dihydro-5H-cyclopenta[d]pyrimidine]"
> 5,–,–,0.497,0.248,"C[C@H]1CCN1c1nc2c(c(-c3ccc(C4(C(=O)O)CC4)cc3)n1)CCC2 [Example 455, 1-[4-[2-[(2S)-2-methylazetidin-1-yl]-6,7-dihydro-5H-cyclopenta[d]pyrimidin-4-yl]phenyl]cyclopropanecarboxylic acid]"
0.013,–,–,0.0114,0.0005,"C[C@H]1[C@H](O)CN1c1nc(-c2ccc3c(c2)CCC32CCC(=O)N2)c2c(n1)C(F)(F)CC2 (stereo partly drawn) [Example 636, 5-(7,7-difluoro-2-((2S,3R)-3-hydroxy-2-methylazetidin-1-yl)-6,7-dihydro-5H-cyclopenta[d]pyrimidin-4-yl)-2,3-dihydrospiro[indene-1,2′-pyrrolidin]-5′-one]"
0.0257,–,–,0.008,0.005,"COc1c(C)cc(-c2nc(N3C[C@@H](O)[C@@H]3C)nc3c2CCC3(F)F)cc1S(C)(=N)=O (stereo partly drawn) [Example 722, (5-(7,7-difluoro-2-((2S,3R)-3-hydroxy-2-methylazetidin-1-yl)-6,7-dihydro-5H-cyclopenta[d]pyrimidin-4-yl)-2-methoxy-3-methylphenyl)(imino)(methyl)-λ^6-sulfanone]"

SMILES,EC50 [1] [µM],IC50 (human KHK-A; ADP-Glo) [µM],IC50 (human KHK-C; ADP-Glo) [µM],IC50 (human KHK-A) [µM],IC50 (human KHK-C) [µM]
"C[C@H]1CCN1c1nc2c(c(-c3ccc4c(c3)C3C(C4)C3C(=O)O)n1)CCC2 (stereo partly drawn) [Example 428, 3-[2-[(2S)-2-methylazetidin-1-yl]-6,7-dihydro-5H-cyclopenta[d]pyrimidin-4-yl]-1,1a,6,6a-tetrahydrocyclopropa[a]indene-1-carboxylic acid]",0.387,–,–,0.0384,0.0413
"C[C@H]1CCN1c1nc2c(c(-c3cccc4c3CC3C(C(=O)O)C43)n1)CCC2 (stereo partly drawn) [Example 432, 5-[2-[(2S)-2-methylazetidin-1-yl]-6,7-dihydro-5H-cyclopenta[d]pyrimidin-4-yl]-1,1a,6,6a-tetrahydrocyclopropa[a]indene-1-carboxylic acid]",2.63,–,–,0.323,0.36
